test system: MV-4-11 cells; test: Cell Viability Assay in MV-4-11 Cells; type: cell-based; conditions: Homo sapiens, MV4-11, 72 h
Procedure: MV-4-11 cells (ATCC) were seeded into sterile 96-well flat clear bottom white polystyrene TC-treated microplates (Corning) at 7,000 cells/well in 150 μL complete growth medium (Iscove's Modified Dulbecco's Medium (IMDM) (Gibco), 10% Heat Inactivated Fetal Bovine Serum (HyClone), 1% Penicillin-Streptomycin-L-Glutamine (HyClone), 1% GlutaMAX (Gibco)). […] After 72 h incubation, plates were removed from incubators and allowed to equilibrate to room temperature (˜10 min) before adding 50 μL per well Cell-Titer Glo reagent (Promega) using a WellJet (Integra Biosciences) dispenser. Plates were then incubated at room temperature for 2-20 min prior to measurement of luminescence on an Envision (Perkin Elmer) plate reader. Data were normalized to DMSO (100% viability) and analyzed using a non-linear four-parameter curve fit.

Structure (SMILES)	IC50 [nM]
CNC(=S)Nc1ccc(-c2cc3c(N(C(=O)c4ccc(-c5cn(C)nn5)cc4F)[C@@H]4CCCNC4)nccc3s2)cc1 [Example 548, (R)-2-fluoro-4-(1-methyl-1H-1,2,3-triazol-4-yl)-N-(2-(4-(3-methylthioureido)phenyl)thieno[3,2-c]pyridin-4-yl)-N-(piperidin-3-yl)benzamide]	240

same assay, conditions: Homo sapiens, MV4-11, 72 h, MV-4-11 cells, 72 h, Cell-Titer Glo; read-out: IC50

Structure (SMILES)	IC50 [nM]
Cc1cc(F)cc2ccnc(N(C(=O)c3ccc(-c4cn(C)nn4)cn3)[C@@H]3CCCNC3)c12 [Example 785, (R)—N-(6-fluoro-8-methylisoquinolin-1-yl)-5-(1-methyl-1H-1,2,3-triazol-4-yl)-N-(piperidin-3-yl)picolinamide]	230
CCc1nnc(-c2ccc(C(=O)N(c3nccc4sc(C)nc34)[C@@H]3CCCNC3)c(F)c2)s1 [Example 667, (R)-4-(5-ethyl-1,3,4-thiadiazol-2-yl)-2-fluoro-N-(2-methylthiazolo[4,5-c]pyridin-4-yl)-N-(piperidin-3-yl)benzamide]	55
[2H]C([2H])([2H])c1nnc(-c2ccc(C(=O)N(c3nccc4cc(F)cc(C)c34)[C@@H]3CCCNC3)c(F)c2)s1 [Example 767, 2-fluoro-N-(6-fluoro-8-methyl-1-isoquinolyl)-N-[(3R)-3-piperidyl]-4-[5-(trideuteriomethyl)-1,3,4-thiadiazol-2-yl]benzamide]	130
[2H]C([2H])([2H])c1nnc(-c2ccc(C(=O)N(c3nccc4cc(C)cc(C)c34)[C@@H]3CCCNC3)c(F)c2)s1 [Example 906, N-(6,8-dimethyl-1-isoquinolyl)-2-fluoro-N-[(3R)-3-piperidyl]-4-[5-(trideuteriomethyl)-1,3,4-thiadiazol-2-yl]benzamide]	48
Cc1nnc(-c2ccc(C(=O)N(c3nccc4cc(-c5nccs5)cc(C)c34)[C@@H]3CCCNC3)c(F)c2)s1 (racemic) [Example 733, 2-fluoro-4-(5-methyl-1,3,4-thiadiazol-2-yl)-N-(8-methyl-6-thiazol-2-yl-1-isoquinolyl)-N-[rac-(3R)-3-piperidyl] benzamide]	46
NC(=O)/C=C/c1cc2c(N(C(=O)c3ccc(-n4nnc5cccnc54)cc3F)[C@@H]3CCCNC3)nccc2s1 [Example 442, N-[2-[(E)-3-amino-3-oxo-prop-1-enyl]thieno[3,2-c]pyridin-4-yl]-2-fluoro-N-[(3R)-3-piperidyl]-4-(triazolo[4,5-b]pyridin-3-yl)benzamide]	1000
N#Cc1ccc(-c2cc3c(N(C(=O)c4ccc(-n5nnc6cccnc65)cc4F)[C@@H]4CCCNC4)nccc3s2)s1 [Example 425, N-[2-(5-cyano-2-thienyl)thieno[3,2-c]pyridin-4-yl]-2-fluoro-N-[(3R)-3-piperidyl]-4-(triazolo[4,5-b]pyridin-3-yl)benzamide]	230
Cc1cccc2ccnc(N(C(=O)N3CCC[C@@H](c4ccc(-n5cc6cccc(C(N)=O)c6n5)cc4)C3)[C@@H]3CCCNC3)c12 [Example 339, 2-(4-((S)-1-((8-methylisoquinolin-1-yl)((R)-piperidin-3-yl)carbamoyl)piperidin-3-yl)phenyl)-2H-indazole-7-carboxamide]	550
O=C(c1ccc(-n2nnc3cccnc32)cc1F)N(c1nccc2sc(CCc3ccncc3)cc12)[C@@H]1CCCNC1 [Example 503, 2-fluoro-N-[(3R)-3-piperidyl]-N-[2-[2-(4-pyridyl)ethyl]thieno[3,2-c]pyridin-4-yl]-4-(triazolo[4,5-b]pyridin-3-yl)benzamide]	2300
O=C(c1ccc(-n2nnc3cccnc32)cc1F)N(c1nccc2sc(-c3ccc4[nH]ncc4c3)cc12)[C@@H]1CCCNC1 [Example 557, 2-fluoro-N-[2-(1H-indazol-5-yl)thieno[3,2-c]pyridin-4-yl]-N-[(3R)-3-piperidyl]-4-(triazolo[4,5-b]pyridin-3-yl)benzamide]	130
Cn1cc(-c2ccc(C(=O)N(c3nccc4sc(-c5ccncc5)cc34)[C@@H]3CCCNC3)c(F)c2)nn1 [Example 363, 2-fluoro-4-(1-methyltriazol-4-yl)-N-[(3R)-3-piperidyl]-N-[2-(4-pyridyl)thieno[3,2-c]pyridin-4-yl]benzamide]	350
CCc1nnc(-c2ccc(C(=O)N(c3nccc4cc(C)cc(C)c34)[C@@H]3CCCNC3)nc2)s1 [Example 671, (R)—N-(6,8-dimethylisoquinolin-1-yl)-5-(5-ethyl-1,3,4-thiadiazol-2-yl)-N-(piperidin-3-yl)picolinamide]	130
NC(=O)c1ccc(-c2cc3c(N(C(=O)c4ccc(-c5cnn6c5CCCC6)cc4F)[C@@H]4CCCNC4)nccc3s2)cc1 [Example 825, N-[2-(4-carbamoylphenyl)thieno[3,2-c]pyridin-4-yl]-2-fluoro-N-[(3R)-3-piperidyl]-4-(4,5,6,7-tetrahydropyrazolo[1,5-a]pyridin-3-yl)benzamide]	1000
CNS(=O)(=O)c1cccc(-c2cc3c(N(C(=O)c4ccc(-c5cn(C)nn5)cc4F)[C@@H]4CCCNC4)nccc3s2)c1 [Example 535, 2-fluoro-N-[2-[3-(methylsulfamoyl)phenyl]thieno[3,2-c]pyridin-4-yl]-4-(1-methyltriazol-4-yl)-N-[(3R)-3-piperidyl]benzamide]	1200
O=C(c1ccc(-n2nnc3cccnc32)cc1F)N(c1nccc2cc(-c3ccccn3)ccc12)[C@@H]1CCCNC1 [Example 556, (R)-4-(3H-[1,2,3]triazolo[4,5-b]pyridin-3-yl)-2-fluoro-N-(piperidin-3-yl)-N-(6-(pyridin-2-yl)isoquinolin-1-yl) benzamide]	650
NC(=O)c1cccc(-c2cc3c(N(C(=O)c4ccc(-n5nnc6cccnc65)cc4F)[C@@H]4CCCNC4)nccc3s2)c1 [Example 452, N-[2-(3-carbamoylphenyl)thieno[3,2-c]pyridin-4-yl]-2-fluoro-N-[(3R)-3-piperidyl]-4-(triazolo[4,5-b]pyridin-3-yl)benzamide]	180
CCc1csc2ccnc(N(C(=O)c3ccc(-c4nnc(C)s4)cc3F)[C@@H]3CCCNC3)c12 [Example 617, (R)—N-(3-ethylthieno[3,2-c]pyridin-4-yl)-2-fluoro-4-(5-methyl-1,3,4-thiadiazol-2-yl)-N-(piperidin-3-yl)benzamide]	540
COCCc1nnc(-c2ccc(C(=O)N(c3nccc4cc(C)cc(C)c34)[C@@H]3CCCNC3)cn2)s1 [Example 903, N-(6,8-dimethyl-1-isoquinolyl)-6-[5-(2-methoxyethyl)-1,3,4-thiadiazol-2-yl]-N-[(3R)-3-piperidyl]pyridine-3-carboxamide]	45

The next lines start with the values.

IC50 [nM]	Structure (SMILES)
280	Cc1cccc2ccnc(N(C(=O)c3ccc(Nc4ncccn4)cc3)[C@@H]3CCCNC3)c12 [Example 309, (R)—N-(8-methylisoquinolin-1-yl)-N-(piperidin-3-yl)-4-(pyrimidin-2-ylamino)benzamide]
49	Cc1cccc2ccnc(N(C(=O)c3ccc(Nc4nccc(C5=CCOCC5)n4)cc3F)[C@@H]3CCCNC3)c12 [Example 685, (R)-4-((4-(3,6-dihydro-2H-pyran-4-yl)pyrimidin-2-yl)amino)-2-fluoro-N-(8-methylisoquinolin-1-yl)-N-(piperidin-3-yl)benzamide]
100	COc1ccnc(Nc2ccc(C(=O)N(c3nccc4cccc(C)c34)[C@@H]3CCCNC3)c(F)c2)n1 [Example 951, 2-fluoro-4-[(4-methoxypyrimidin-2-yl)amino]-N-(8-methylisoquinolin-1-yl)-N-[(3R)-piperidin-3-yl]benzamide]
70	CCc1nnc(-c2ccc(C(=O)N(c3nccc4cccc(C)c34)[C@@H]3CCCNC3)cn2)s1 [Example 900, 6-(5-ethyl-1,3,4-thiadiazol-2-yl)-N-(8-methyl-1-isoquinolyl)-N-[(3R)-3-piperidyl] pyridine-3-carboxamide]
38	Cc1cccc2ccnc(N(C(=O)c3ccc(Nc4nccc(CN5CCCC5)n4)cc3F)[C@@H]3CCCNC3)c12 [Example 961, (R)-2-fluoro-N-(8-methylisoquinolin-1-yl)-N-(piperidin-3-yl)-4-((4-(pyrrolidin-1-ylmethyl)pyrimidin-2-yl)amino)benzamide]
430	CNc1nccc(-c2cc3c(N(C(=O)c4ccc(-c5cn(C)nn5)cc4F)[C@@H]4CCCNC4)nccc3s2)n1 [Example 531, (R)-2-fluoro-4-(1-methyl-1H-1,2,3-triazol-4-yl)-N-(2-(2-(methylamino)pyrimidin-4-yl)thieno[3,2-c]pyridin-4-yl)-N-(piperidin-3-yl)benzamide]
140	Cc1cccc2ccnc(N(C(=O)c3ccc(Nc4nccc(-c5ccc(O)cc5)n4)cc3F)[C@@H]3CCCNC3)c12 [Example 721, (R)-2-fluoro-4-((4-(4-hydroxyphenyl)pyrimidin-2-yl)amino)-N-(8-methylisoquinolin-1-yl)-N-(piperidin-3-yl)benzamide]
230	Cc1cccc2ccnc(N(C(=O)c3ccc(Nc4nccc(N5CCC(N(C)C)CC5)n4)cc3F)[C@@H]3CCCNC3)c12 [Example 714, (R)-4-((4-(4-(dimethylamino)piperidin-1-yl)pyrimidin-2-yl)amino)-2-fluoro-N-(8-methylisoquinolin-1-yl)-N-(piperidin-3-yl)benzamide]
6.6	Cc1cc(-c2cn[nH]c2)cc2ccnc(N(C(=O)c3ccc(-n4nnc5cccnc54)cc3F)[C@@H]3CCCNC3)c12 [Example 422, (R)-4-(3H-[1,2,3]triazolo[4,5-b]pyridin-3-yl)-2-fluoro-N-(8-methyl-6-(1H-pyrazol-4-yl)isoquinolin-1-yl)-N-(piperidin-3-yl)benzamide]
17	Cc1cc(Cl)cc2ccnc(N(C(=O)c3ccc(-n4nnc5cccnc54)cc3F)[C@@H]3CCCNC3)c12 [Example 615, N-(6-chloro-8-methyl-1-isoquinolyl)-2-fluoro-N-[(3R)-3-piperidyl]-4-(triazolo[4,5-b]pyridin-3-yl)benzamide]
